Values of other authors as cited in patent US7074797B2, “Pyrazolopyrimidines as CRF receptor antagonists” (Neurocrine Biosciences, Inc., priority 1996, dated 2006).
No end group written: not given here.

Assays:
Rats [1] = conditions: central administration
Rats [2] = conditions: ICV, animals previously familiarized with the apparatus, fifteen minute session

CRF: corticotropin-releasing factor, a 41-amino acid peptide (SEEPPISLDLTFHLLREVLEMARAEQLAQQAHSNRKLMEII-NH2; ends and bridges not checked; UniProt P06850 154-194, looked up)
exploration in the elevated plus maze (Rats [1]): suppresses exploration | latency to emerge from the small chamber (Rats [2]): increases | mean time spent in the chamber (Rats [2]): increases
